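Dose response: 5 concentrations. Exposure: 48 h. Format: 96-well plates. Endpoint: linear interpolation; highest concentration if not reached. At the GI50, growth is halved. At the TGI there is no net growth.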
Assays:
Test in all cases: growth of human tumour cells (NCI), 48 h
A498 renal = system: A498 renal
A549 NSCLC = system: A549 NSCLC
CAKI-1 renal = system: CAKI-1 renal
HCT-15 colon = system: HCT-15 colon
HOP-92 NSCLC = system: HOP-92 NSCLC
KM12 colon = system: KM12 colon
MALME-3M melanoma = system: MALME-3M melanoma
OVCAR-5 ovarian = system: OVCAR-5 ovarian
SF-539 CNS = system: SF-539 CNS
SK-MEL-2 melanoma = system: SK-MEL-2 melanoma

Row | SMILES | TGI (A498 renal) | TGI (A549 NSCLC) | TGI (CAKI-1 renal) | TGI (HCT-15 colon) | TGI (HOP-92 NSCLC) | TGI (KM12 colon) | TGI (MALME-3M melanoma) | TGI (OVCAR-5 ovarian) | TGI (SF-539 CNS) | TGI (SK-MEL-2 melanoma) | GI50 (A498 renal) | GI50 (A549 NSCLC) | GI50 (CAKI-1 renal) | GI50 (HCT-15 colon) | GI50 (HOP-92 NSCLC) | GI50 (KM12 colon) | GI50 (MALME-3M melanoma) | GI50 (OVCAR-5 ovarian) | GI50 (SF-539 CNS) | GI50 (SK-MEL-2 melanoma)
1 | O=C1C(=Cc2ccc(F)cc2)C(=O)c2ccccc21 | > 100 µM | > 100 µM | > 100 µM | > 100 µM | > 100 µM | > 100 µM | > 100 µM | > 100 µM | > 100 µM | > 100 µM | – | – | – | – | – | – | – | – | – | –
2 | NC1=Nc2ccccc2Sc2ccccc21 | > 100 µM | > 100 µM | > 100 µM | > 100 µM | > 100 µM | > 100 µM | > 100 µM | > 100 µM | > 100 µM | > 100 µM | – | – | – | – | – | – | – | – | – | –
3 | COC(=O)C#CC(N)=O | > 100 µM | > 100 µM | > 67.1 µM | > 100 µM | 40.6 µM | > 100 µM | 19.1 µM | > 100 µM | > 100 µM | > 100 µM | – | – | – | – | – | – | – | – | – | –
4 | C1CC[N-]CC1.CC(=N\O)/C(C)=N/O.CC(=N\O)/C(C)=N/O.C[CH-]C(C)O.[Co+2] | 73.9 µM | > 100 µM | 57.8 µM | > 100 µM | 48.6 µM | > 100 µM | 29.7 µM | > 100 µM | 94.4 µM | 34.9 µM | 23900 nM | 47.3 µM | 24000 nM | 30 µM | 19.4 µM | 34300 nM | 15.2 µM | 35.1 µM | 24 µM | 17.9 µM
5 | CCOC(=O)N(O)c1ccc(/C=C/c2ccccc2)cc1 | 0.291 µM | 41.9 µM | 21.4 µM | 37.4 µM | 35.7 µM | 36.6 µM | 61.4 µM | 9.71 µM | 40.1 µM | 28.6 µM | 146 nM | 2.98 µM | 2700 nM | 9.18 µM | 4.96 µM | 10600 nM | 19.5 µM | 0.737 µM | 17.1 µM | 8.62 µM
6 | COc1cc2c(=O)n(CC3CCCCC3)c3c4cc[nH]c4ncc3c2cc1OC | 3.06 µM | 16.9 µM | 7.39 µM | > 50 µM | 2.78 µM | 34.9 µM | 26.3 µM | 24.2 µM | 3.08 µM | 41.7 µM | 86 nM | 5 µM | 1190 nM | 1.69 µM | 0.137 µM | 36.2 nM | 6.33 µM | 1.74 µM | 0.681 µM | 8.69 µM
7 | CN(C)Cc1cc(C(C)(C)C)cc(CN(C)C)c1O | > 100 µM | > 100 µM | > 100 µM | > 100 µM | > 100 µM | > 100 µM | > 100 µM | > 100 µM | > 100 µM | > 100 µM | – | – | – | – | – | – | – | – | – | –
8 | Cc1ccc(C)c(NC(=O)C(=O)Nn2c(=S)[nH]c3ccccc3c2=O)c1 | > 100 µM | > 100 µM | > 100 µM | > 100 µM | > 100 µM | > 100 µM | > 100 µM | > 100 µM | > 100 µM | > 100 µM | – | – | – | – | – | – | – | – | – | –
9 | NC(=O)c1nc(-c2ccc(Cl)c(Cl)c2)nc2ccccc12 | > 100 µM | > 100 µM | > 100 µM | > 100 µM | 4.74 µM | > 100 µM | 30 µM | > 100 µM | > 95.5 µM | > 100 µM | – | – | – | – | – | – | – | – | – | –
10 | O=S(=O)(Nc1ccc(Cl)c(Cl)c1)c1ccc(-c2cnc(C3CC3)o2)cc1 | 2.9 µM | 17.2 µM | 16.7 µM | 15.7 µM | 12.5 µM | 15.4 µM | 25.8 µM | 17.3 µM | 3.64 µM | 24.4 µM | 273 nM | 0.672 µM | 384 nM | 0.405 µM | 0.367 µM | 371 nM | 2.67 µM | 2.32 µM | 0.399 µM | 2.43 µM
11 | O=C1/C(=C/c2ccc(O)cc2)Oc2ccccc21 | > 100 µM | > 100 µM | > 100 µM | > 100 µM | > 100 µM | > 100 µM | > 100 µM | > 100 µM | > 100 µM | > 100 µM | – | – | – | – | – | – | – | – | – | –
12 | c1ccc(-c2cc3n4c(-c5ccccc5)nn(-c5ccccc5)c4cnc-3n2)cc1 | > 50 µM | > 50 µM | > 50 µM | > 50 µM | > 50 µM | > 50 µM | > 50 µM | > 50 µM | > 50 µM | > 50 µM | 12100 nM | > 50 µM | 15100 nM | > 50 µM | 12 µM | > 50000 nM | 4.58 µM | > 50 µM | 13.7 µM | > 50 µM
13 | O=C(N/C(=C\c1ccc(F)cc1)c1nc2ccccc2[nH]1)c1ccccc1 | > 100 µM | > 100 µM | > 100 µM | > 100 µM | > 100 µM | > 100 µM | > 100 µM | > 100 µM | > 100 µM | > 100 µM | – | – | – | – | – | – | – | – | – | –
14 | COc1ccc(C2C3=C(COC3=O)N(CCO)c3cc4c(cc32)CCC4)cc1 (stereo not given) | > 50 µM | > 50 µM | 27.7 µM | > 50 µM | > 50 µM | > 50 µM | > 50 µM | > 50 µM | 28.5 µM | 4.74 µM | 2360 nM | 3.84 µM | 3100 nM | 6.04 µM | > 50 µM | 2310 nM | 3.06 µM | > 50 µM | 5.09 µM | 1.45 µM
15 | CC[C@@H](C(=O)[C@@H](C)[C@@H](O)[C@H](C)[C@@H]1O[C@@H]([C@@H](CC)C(=O)O)CC[C@@H]1C)[C@H]1O[C@]2(C=C[C@@H](O)[C@]3(CC[C@@](C)([C@H]4CC[C@](O)(CC)[C@H](C)O4)O3)O2)[C@H](C)C[C@@H]1C | 0.821 µM | 14.1 µM | 44.2 µM | > 100 µM | 5.1 µM | 15.7 µM | 1.81 µM | 80.5 µM | 5.27 µM | 2.48 µM | 56.7 nM | 0.421 µM | 1610 nM | 0.912 µM | 0.266 µM | 1180 nM | 0.416 µM | 6.61 µM | 0.806 µM | 0.279 µM
16 | CCCCCC/C(CC(=O)CCC(=O)NCCc1ccccc1)=N\Nc1ccc([N+](=O)[O-])cc1[N+](=O)[O-] | > 100 µM | > 100 µM | > 100 µM | > 100 µM | > 100 µM | > 100 µM | > 100 µM | > 100 µM | > 100 µM | > 100 µM | – | – | – | – | – | – | – | – | – | –
